One data set deals with Leptosphaeria nodorum. Description: In vivo preventive test on Leptosphaeria nodorum (wheat). The following applies: evaluated 8 days after inoculation. The protocol: In Vivo Preventive Test on Leptosphaeria nodorum (Wheat) • Solvent: 49 parts by weight of N,N-dimethylacetamide • Emulsifier: 1 part by weight of alkylaryl polyglycol ether To produce a suitable preparation of active compound, 1 part by weight of active compound or active compound combination is mixed with the stated amounts of solvent and emulsifier, and the concentrate is diluted with water to the desired concentration. To test for preventive activity, young plants are sprayed with the preparation of active compound or active compound combination at the stated rate of application. After the spray coating has been dried, the plants are sprayed with a spore suspension of Leptosphaeria nodorum. The plants remain for 48 hours in an incubation cabinet at approximately 20° C. and a relative atmospheric humidity of approximately 100%. The plants are placed in the greenhouse at a temperature of approximately 22° C. and a relative atmospheric humidity of approximately 80%. The test is evaluated 8 days after the inoculation. 0% means an efficacy which corresponds to that of the untreated control, while an efficacy of 100% means that no disease is observed.

Another data set concerns Tomato. In words: Plant damages observed in the Alternaria solani preventive test (tomato). Format: in vivo. The following applies: footnote to table B2. How it is done:
In Vivo Preventive Test on Alternaria solani (Tomato) To test for preventive activity, young plants are sprayed with the preparation of active compound at the stated rate of application. One day after this treatment, the plants are inoculated with an aqueous spore suspension of Alternaria solani. The plants remain for one day in an incubation cabinet at approximately 22° C. and a relative atmospheric humidity of 100%. Then the plants are placed in an incubation cabinet at approximately 20° C. and a relative atmospheric humidity of 96%. Under the same conditions, high (at least 85%) to total protection is observed at a dose of 500 and 100 ppm of active ingredient with compound of example 12, 20 and 25, whereas poor (less than 20%) protection to 100% of plant damages is observed with compound 1.006, compound CMP1 (chloro analogue of compound 1.006) and compound CMP2 (fluoro analogue of compound 1.006) claimed in patent application WO-2009/153191 as in table B2: […]

Another data set deals with Alternaria solani. In words: In vivo preventive test on Alternaria solani (tomato). The following applies: evaluated 7 days after inoculation. The protocol:
In Vivo Preventive Test on Alternaria solani (Tomato) • Solvent: 49 parts by weight of N,N-dimethylformamide • Emulsifier: 1 part by weight of alkylarylpolyglycolether To produce a suitable preparation of active compound, 1 part by weight of active compound is mixed with the stated amounts of solvent and emulsifier, and the concentrate is diluted with water to the desired concentration. To test for preventive activity, young plants are sprayed with the preparation of active compound at the stated rate of application. One day after this treatment, the plants are inoculated with an aqueous spore suspension of Alternaria solani. The plants remain for one day in an incubation cabinet at approximately 22° C. and a relative atmospheric humidity of 100%. Then the plants are placed in an incubation cabinet at approximately 20° C. and a relative atmospheric humidity of 96%. The test is evaluated 7 days after the inoculation. 0% means an efficacy which corresponds to that of the untreated control while an efficacy of 100% means that no disease is observed.

The nature of data set [1]: log P by HPLC on reversed-phase column (C 18), EEC Directive 79/831 Annex V.A8. It is filed as physicochemical. Conditions: 40° C., 0.1% aqueous formic acid and acetonitrile. The protocol: In table 1, the log P values were determined in accordance with EEC Directive 79/831 Annex V.A8 by HPLC (High Performance Liquid Chromatography) on a reversed-phase column (C 18), using the method described below: Temperature: 40° C.; Mobile phases: 0.1% aqueous formic acid and acetonitrile; linear gradient from 10% acetonitrile to 90% acetonitrile. Calibration was carried out using unbranched alkan-2-ones (comprising 3 to 16 carbon atoms) with known log P values (determination of the log P values by the retention times using linear interpolation between two successive alkanones). lambda-max-values were determined using UV-spectra from 200 nm to 400 nm and the peak values of the chromatographic signals.

The subject of a further data set is Sphaerotheca fuliginea. In words: In vivo preventive test on Sphaerotheca fuliginea (cucumber). The following applies: 500 ppm of active ingredient, evaluated 7 days after inoculation. The protocol:
In Vivo Preventive Test on Sphaerotheca Fulicinea (Cucumber) • Solvent: 49 parts by weight of N,N-dimethylformamide • Emulsifier: 1 part by weight of alkylarylpolyglycolether To produce a suitable preparation of active compound, 1 part by weight of active compound is mixed with the stated amounts of solvent and emulsifier, and the concentrate is diluted with water to the desired concentration. To test for preventive activity, young plants are sprayed with the preparation of active compound at the stated rate of application. One day after this treatment, the plants are inoculated with an aqueous spore suspension of Sphaerotheca fuliginea. Then the plants are placed in a greenhouse at approximately 23° C. and a relative atmospheric humidity of approximately 70%. The test is evaluated 7 days after the inoculation. 0% means an efficacy which corresponds to that of the untreated control, while an efficacy of 100% means that no disease is observed.

For the next data set, the system named is Pyrenophora teres. In words: In vivo preventive test on Pyrenophora teres (barley). Conditions: 500 ppm of active ingredient, evaluated 7-9 days after inoculation. The protocol:
In Vivo Preventive Test on Pyrenophora teres (Barley) • Solvent: 49 parts by weight of N,N-dimethylformamide • Emulsifier: 1 part by weight of alkylaryl polyglycol ether To produce a suitable preparation of active compound, 1 part by weight of active compound is mixed with the stated amounts of solvent and emulsifier, and the concentrate is diluted with water to the desired concentration. To test for preventive activity, young plants are sprayed with the preparation of active compound at the stated rate of application. One day after this treatment, the plants are inoculated with an aqueous spore suspension of Pyrenophora teres. The plants remain for 48 hours in an incubation cabinet at 22° C. and a relative atmospheric humidity of 100%. Then the plants are placed in a greenhouse at a temperature of approximately 20° C. and a relative atmospheric humidity of approximately 80%. The test is evaluated 7-9 days after the inoculation. 0% means an efficacy which corresponds to that of the untreated control while an efficacy of 100% means that no disease is observed.

Marks after values point to notes of the source that are not given here.

One may read the logP as a log measure of how a compound divides between an organic and an aqueous phase. Low readings indicate a more hydrophilic compound, high ones a more lipophilic compound.

In the case of `Cn1nc(C(F)F)c(C(=O)N2CCC[C@H]2COc2c(Cl)cc(Cl)cc2Cl)c1Cl` [CMP1, [5-chloro-3-(difluoromethyl)-1-methyl-1H-pyrazol-4-yl]{(2S)-2-[(2,4,6-trichlorophenoxy)methyl]pyrrolidin-1-yl}methanone, reference compound], the Efficacy in the data set with Leptosphaeria nodorum (100 ppm of active ingredient) and in the data set with Leptosphaeria nodorum (500 ppm of active ingredient) was 0% throughout. The plant damages entry in the data set with Tomato (100 ppm) and in the data set on Tomato (500 ppm) was “^(a)together with 100% of plant damages” each time.

Turning to `Cn1nc(C(F)F)c(C(=O)N2CCC[C@H]2COc2c(Cl)cc(Cl)cc2Cl)c1F` [CMP2, [3-(difluoromethyl)-5-fluoro-1-methyl-1H-pyrazol-4-yl]{(2S)-2-[(2,4,6-trichlorophenoxy)methyl]pyrrolidin-1-yl}methanone], the plant damages result in the data set with Tomato (100 ppm) and with Tomato (500 ppm) was “^(a)together with 100% of plant damages” throughout.

Regarding `Cn1cc(C(=O)N2CCC[C@H]2COc2c(Cl)cc(Cl)cc2Cl)c(C(F)F)n1` [Compound 1.006, [3-(difluoromethyl)-1-methyl-1H-pyrazol-4-yl]{(2S)-2-[(2,4,6-trichlorophenoxy)methyl]pyrrolidin-1-yl}methanone, reference compound], the Efficacy with Alternaria solani (100 ppm of active ingredient) is 20 ^(b) %; with Leptosphaeria nodorum (100 ppm of active ingredient), 40%; in the data set with Leptosphaeria nodorum (500 ppm of active ingredient), 60%. Besides, the plant damages entry with Tomato (500 ppm) was “^(a)together with 100% of plant damages”.

In turn, `CCCCCCC1CCCN1C(=O)c1c(C(F)F)nn(C)c1F` (stereo not shown) [Example 8] displayed a logP in data set [1] of 3.80. Further, the Efficacy in the data set on Sphaerotheca fuliginea amounted to 98%; with Pyrenophora teres it was 100%; in the data set with Leptosphaeria nodorum (100 ppm of active ingredient), 90%; in the data set on Leptosphaeria nodorum (500 ppm of active ingredient) it was 95%.

For the molecule `Cn1nc(C(F)F)c(C(=O)N2CCCC2C2CCCCC2)c1F` (stereo not shown) [Example 11], the logP in data set [1] amounted to 3.31. The Efficacy in the data set on Sphaerotheca fuliginea worked out at 95%; in the data set with Alternaria solani (500 ppm of active ingredient) it was 94%; in the data set on Pyrenophora teres, 100%; in the data set with Leptosphaeria nodorum (100 ppm of active ingredient), 80%; in the data set on Leptosphaeria nodorum (500 ppm of active ingredient) it was 95%.

`Cn1nc(C(F)F)c(C(=O)N2CCCC2CC2CCCCC2)c1F` (stereo not shown) [Example 17]: in data set [1], the logP is reported as 3.78. In addition, the Efficacy in the data set with Sphaerotheca fuliginea is reported as 100%; in the data set with Alternaria solani (500 ppm of active ingredient), 94%; with Pyrenophora teres it was 100%; in the data set with Leptosphaeria nodorum (100 ppm of active ingredient), 80%; with Leptosphaeria nodorum (500 ppm of active ingredient), 95%.

Consider `Cn1cc(C(=O)N2CCCCC2C2CCCCC2)c(C(F)F)n1` (stereo not shown) [Example 25], for which the logP in data set [1] was determined as 3.15. Moreover, the Efficacy with Sphaerotheca fuliginea is given as 100%; with Alternaria solani (100 ppm of active ingredient), 90%; in the data set on Alternaria solani (500 ppm of active ingredient), 90%; with Pyrenophora teres it was 100%.

For the molecule `Cn1nc(C(F)F)c(C(=O)N2CCCCC2CC2CCCCC2)c1F` (stereo not shown) [Example 26], the logP in data set [1] is 4.19. The Efficacy in the data set on Sphaerotheca fuliginea, with Alternaria solani (500 ppm of active ingredient) and in the data set with Pyrenophora teres was 100% throughout.

On to `Cn1nc(C(F)F)c(C(=O)N2CCCC2CC2CC3CCC2C3)c1F` (stereo not shown) [Example 48], for which the logP in data set [1] is given as 3.89. For the same molecule, the Efficacy turned out to be 100% in the data set on Sphaerotheca fuliginea, 100% with Alternaria solani (500 ppm of active ingredient), 100% in the data set with Pyrenophora teres and 90% in the data set with Leptosphaeria nodorum (500 ppm of active ingredient).

`Cn1cc(C(=O)N2CCCC2CC2CC3CCC2C3)c(C(F)F)n1` (stereo not shown) [Example 49]: in data set [1], the log partition coefficient (logP) amounted to 3.44. Moreover, the Efficacy in the data set with Sphaerotheca fuliginea was found to be 90%; with Alternaria solani (500 ppm of active ingredient), 94%; in the data set on Pyrenophora teres, 100%; with Leptosphaeria nodorum (500 ppm of active ingredient), 70%.

The values above are taken from patent publication US9357778B2, “N-acyl-2-(cyclo)alkypyrrolidines and piperidines useful as fungicides” (BAYER CROPSCIENCE AG, priority 2012, dated 2016).
